The test system of one data set is Vk*MYC myeloma. It counts as in vivo. From the text: To achieve this, a system of allogeneic BMT was developed where C57B⅙ recipients are transplanted with BM and T cell grafts from minor MHC (major histocompatibility complex)-mismatched C3H.SW donors (alloBMT) or syngeneic C57B⅙ donors (synBMT). A green fluorescent protein (GFP)-expressing MLL-AF9-driven leukemia that allows for monitoring of tumor cells in peripheral blood and Vk*MYC myeloma that secretes immunoglobulin G (IgG), which can be monitored by serum protein electrophoresis as an M-band (albumin/gamma ratio) that is a hallmark of clinical disease, were utilized.
(§1) Stem cell transplantation: Recipient mice were intravenously injected with Vk12653, which originated from Vk*MYC transgenic mice, 2 weeks before BMT (1 × 10^6 CD138^+CD19neg cells; MM-bearing mice) or with an MLL-AF9-driven AML (MLL-AF9; 0.1 × 10^6 GFP^+) or BCR-ABL-NUP98-HOXA9 (1.0 × 10^6 GFP^+) on D0 (AML-bearing mice). Recipients were transplanted with BM and T cell grafts (doses detailed in the figure legends) administered via tail vein injection the day after lethal irradiation (1000 cGy for C57B⅙ and 1100 cGy for B62DF1, 137Cs source). Every 2 weeks, serum samples were collected from MMbearing recipients, and M-band was quantified using a Sebia Hydrasys serum protein electrophoresis system ([…] 2 Scan). Leukemia cell number in blood was calculated weekly using flow cytometry to quantify GFP^+ cells in blood. Recipients were monitored daily, up to 120 days after BMT, and euthanized when hindlimb paralysis occurred or clinical scores reached ≥6. In competing risk analyses, deaths were attributed to myeloma if the M-band was above 0.28, a defined relapse threshold. In the leukemia models, leukemic death was defined by a white blood cell count above 50 × 10^6/ml or a GFP^+ leukemia frequency above 50% in blood or BM. For some experiments, mice were treated with 100 µg of anti-TIGIT monoclonal antibody (mAb; 4B1, Bristol Myers Squibb) or mouse IgG2a (anti-KLH) twice a week for 4 weeks from D+14 postalloBMT. For other experiments, mice were treated with 100 µg of Fc-dead anti-TIGIT mAb (D265A, Bristol Myers Squibb) or mouse IgG1 (anti-KLH.1) twice a week for 6 weeks from D+21 postalloBMT. Cyclophosphamide (Fisher Scientific; 99.5%, MP Biomedicals) was intraperitoneally administered at 50 mg/kg on D+3 and D+4 after alloBMT (PT-Cy). […] DR-18 was supplied by Simcha Therapeutics (New Haven, CT).
(§2) Cell preparation for flow cytometry: Recipient mice were euthanized 2 to 8 weeks after transplant, and cells from BM or blood were harvested. For BM aspirates, mice were anesthetized and treated with a local analgesic (0.5% lidocaine) followed by injection of 30 µl of phosphate-buffered saline (PBS) into the femur to allow up to 10 µl of marrow to be aspirated for fluorescence- activated cell sorting (FACS) analysis. For surface marker phenotyping, isolated cells were incubated with Fc-block before staining with fluorescently tagged antibodies (listed in Table 1), on ice for 30 min. For intracellular staining, cells were surface labeled, fixed, and permeabilized (eBioscience, Foxp3 Transcription Factor Staining Buffer Kit) before intracellular staining at room temperature for 60 min. To measure cytokine production, cells were stimulated for 4 hours at 37° C. with PMA (500 ng/ml) and ionomycin (50 ng/ml; Sigma-Aldrich) with brefeldin A (BioLegend). All samples were acquired on a BD LSR Fortessa (BD Biosciences) or BD FACSymphony A3 (BD Biosciences) and analyzed using FlowJo software (v10). t-SNE analysis was performed using the FlowJo plugin with default settings on a concatenated sample with 3000 CD8 T cells per mouse. FlowSOM analysis was performed with 3000 to 4000 CD8 or CD4 T cells per mouse concatenated after downsampling.
Statistical analysis: Data are presented as means ± SEM, and P < 0.05 was considered significant. Survival curves were plotted using Kaplan-Meier estimates and compared by log-rank (Mantel-Cox) test.

The next data set relates to T cells in the BM. The procedure: It was next investigated whether it was possible to eliminate highly activated, alloreactive T cells to preserve T cell subsets that could be safely harnessed to improve GVT responses in the BM after alloBMT. […] T cell phenotypes in the BM were first assessed 14 days after transplantation in MM-free mice to generate a dataset that could be broadly interpreted independent of specific tumor induced phenotypes. Single-cell sequencing was performed on sorted T cells from BM with the 10x Genomics Multiome platform to measure concurrent changes in gene expression (RNA sequencing) and chromatin accessibility (ATAC (assay for transposase-accessible chromatin) sequencing).
as §2
Single-cell RNA/ATAC sequencing: Naive C57B⅙ mice were transplanted with C3H.SW grafts and were untreated (alloBMT) or treated with PT-Cy (50 mg/kg) on D+3 and D+4 (PT-Cy). BM was harvested from femurs (four mice pooled per group) at D+14 after alloBMT, and T cells were sort-purified (CD90.2^+CD4^+ and CD90.2^+CD8^+) before nuclei preparation according to the 10x Genomics Multiome protocol. Nuclei (also referred to as cells herein) were captured and libraries were generated according to the manufacturer’s specifications. Libraries were sequenced using Illumina NovaSeq 6000 targeting a depth of 25,000 reads per cell per library.
Single-cell RNA/ATAC analysis: Reads were demultiplexed and processed using cellranger-arc v1.0.1 aligning reads to GENCODE vM23/Ensembl98. Peaks were called from each sample’s fragment file (cellranger output) using MACS2 using the parameters “--nomodel --extsize 200 --shift -100.” Quantification of reads in MACS2 peaks were calculated and integrated with cellranger RNA output using Signac. Cells meeting the following criteria (calculated using Signac) were retained for downstream analysis: percent mitochondrial RNA reads <10%; 3 > log10(ATAC counts) < 4.5; 3 > log10(RNA/UMI counts) < 4.5; fraction of reads in peaks >40%; transcription start site (TSS) percentile >75%. RNA/unique molecular identifier (UMI) counts were subject to a variance-stabilized normalization procedure using Seurat’s “glmGamPoi” function before dimensionality reduction using principal components analysis (PCA).

For data set [1], the system named is BCR-ABL-NUP98-HOXA9 leukemia. As to the method: Recipients were untreated (haploBMT) or administered PT-Cy (50 mg/kg) on D+3 and D+4 (PT-Cy) with or without decoy-resistant IL-18 (PT-Cy + DR-18; 8 µg twice weekly from D+7 to week 5) or CD137 agonist antibody (PT-Cy + αCD137; 100 µg twice weekly from D+7 to week 5).
It was next sought to explore the combination of agonist immunotherapy with PT-Cy in a model of haploidentical transplantation (haploBMT), a setting where PT-Cy is a clinical standard of care. In this model, there is a major genetic mismatch between the recipient and the donor whereby lethal GVHD occurs in the absence of any immunosuppressive interventions.
To explore the mechanisms of DR-18-driven GVL in a haploBMT setting, donor cells from a triple reporter mouse (FoxP3-RFP × IL-10-GFP × IFN-γ-YFP) were used to measure in vivo cytokine production without restimulation. Phenotyping was performed in mice with low leukemia burden to minimize the effect of tumor cells on T cell number in the BM.
as §1

Setting [2] is: 50 mg/kg D+3 and D+4, vs untreated recipients.
Where [3] appears, read: 50 mg/kg D+3 and D+4, D+14, multiome sequencing, vs untreated alloBMT.
Setting [4] is: 50 mg/kg D+3 and D+4, vs untreated haploBMT.
Setting [5] is: 21 days after transplantation, vs untreated haploBMT.
[6] abbreviates: 21 days, PT-Cy vs untreated haploBMT.

Entries after “also recorded” stand apart in the source; their conditions may differ.

On to `O=P1(N(CCCl)CCCl)NCCCO1` (stereo not shown) [PT-Cy, cyclophosphamide], for which, in the data set with Vk*MYC myeloma (50 mg/kg D+3 and D+4, vs untreated alloBMT), the overall survival entry is “did not significantly reduce overall survival”. Besides, in the data set on Vk*MYC myeloma (setting [2]), the “myeloma burden (M-band) at 4 weeks after alloBMT” value is “early myeloma cytoreduction with reduced M-bands” and the “myeloma progression (M-band) 8 weeks after alloBMT” value is listed as “subsequent increase in myeloma progression”. Also, in the data set with Vk*MYC myeloma (7 weeks after transplant), the “CD8+ T cell phenotype in BM, MM-bearing recipients” value is “most CD8^+ T cells were DNAM-1-TIGIT^+ with high expression of TOX and TIM-3”; the “total numbers of CD4+ and CD8+ T cells in BM” value is “reduction in total numbers of CD4^+ and CD8^+ T cells”. In addition, the “total T cell numbers (CD8 and CD4) in BM” value in the data set on Vk*MYC myeloma (D+14 (MM-free) and D+21 (MM-bearing) after alloBMT) was “concurrently reduced; also recorded: reduces the total number of CD8 and CD4 T cells”. In the data set with T cells in the BM (50 mg/kg D+3 and D+4, D+14, ATAC), the “chromatin accessibility (gene activity scores) of Il18r1, Il2ra, Il7r in CD8+ and CD4+ T cells” value is given as “increased gene activity scores”. In the data set with T cells in the BM (setting [3]), the “gene signature expression in BM CD8+ T cells” value is “higher expression of stem-like memory gene signatures” and the “gene signature in BM CD4+ T cells” value is “largely enriched for a TSCM signature”. In the data set with T cells in the BM (7 weeks after transplant), the “CD8+ T cell phenotype in BM, MM-free recipients” value is “most CD8^+ T cells were DNAM-1^+TIGIT^- and did not express TOX or TIM-3”; the “CD8+ central memory and terminal effector T cells, MM-free recipients” value was “increase in CD8^+ central memory (TCM; CD44^+CD62L^+) and a decrease in terminal effector (TEFF; CD44^-CD62L^-) T cells”. Besides, in the data set with T cells in the BM (D+14), the “frequency of alloreactive, exhausted T cells in the BM” value is “reduced the frequency of alloreactive, exhausted T cells”. Moreover, the “granzyme B production by CD8+ T cells” value in the data set on T cells in the BM (D+14, RNA and protein expression) is “did not abrogate granzyme B production”. The “CD4+ T cell exhaustion signature in FoxP3- conventional CD4+ T cells” value in the data set on T cells in the BM (D+14, flow cytometry) was “largely indistinguishable from synBMT recipients”. The “DNAM-1, TIGIT, PD-1 and TOX expression on BM CD8+ T cells” value in the data set on T cells in the BM (D+14, flow cytometry, vs alloBMT without PT-Cy) is “significantly increased DNAM-1 and reduced TIGIT, PD-1, and TOX expression”. Moreover, in data set [1] (setting [4]), the “incidence of lethal GVHD” value is listed as “reduced the incidence of lethal GVHD” and the relapse-related mortality entry was “increased relapse-related mortality”. In data set [1] (setting [5]), the “CD8+ T cell numbers in the BM” value was “reduced” and the “NK cells in the BM” value is reported as “increased”. For the same compound, in data set [1] (setting [6]), the “CD4+ IFN-γ production” value is recorded as “unaffected” and the “frequency of IFN-γ+ CD8+ T cells” value is listed as “minimally decreased”. For the same compound, in data set [1] (PT-Cy vs untreated haploBMT), the overall survival result is given as “no difference in overall survival”.
